# Data taken from patent US10981911B2, “Imidazopyrrolopyridine as inhibitors of the JAK family of kinases” (Janssen Pharmaceutica NV, priority 2016, dated 2021).
# How the values were obtained:
# Assay type in all cases: biochemical
# JAK3-JH1JH2 = JAK3-JH1JH2 (Homo sapiens (Human), UniProt P52333); assay: Enzymatic inhibition assay (RapidFire HTMS), JAK3; conditions: 150 μM ATP, 40 μM substrate
# In short: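 Compounds tested in duplicate over 11-point 1:3 or 1:4 dilution series; no-enzyme wells as negative control. After 45 min at 25 °C, TFA quench with internal standard, and phosphorylated product quantified by RapidFire–QTrap mass spectrometry relative to the uninhibited reaction.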
# Tyk2-JH1JH2 = Tyk2-JH1JH2 (Homo sapiens (Human), UniProt P29597, C1142A/C936A); assay: Enzymatic inhibition assay (RapidFire HTMS), Tyk2; conditions: 50 μM ATP, 200 μM substrate
# Chain of Tyk2-JH1JH2 (P29597 580-1182 C936A/C1142A): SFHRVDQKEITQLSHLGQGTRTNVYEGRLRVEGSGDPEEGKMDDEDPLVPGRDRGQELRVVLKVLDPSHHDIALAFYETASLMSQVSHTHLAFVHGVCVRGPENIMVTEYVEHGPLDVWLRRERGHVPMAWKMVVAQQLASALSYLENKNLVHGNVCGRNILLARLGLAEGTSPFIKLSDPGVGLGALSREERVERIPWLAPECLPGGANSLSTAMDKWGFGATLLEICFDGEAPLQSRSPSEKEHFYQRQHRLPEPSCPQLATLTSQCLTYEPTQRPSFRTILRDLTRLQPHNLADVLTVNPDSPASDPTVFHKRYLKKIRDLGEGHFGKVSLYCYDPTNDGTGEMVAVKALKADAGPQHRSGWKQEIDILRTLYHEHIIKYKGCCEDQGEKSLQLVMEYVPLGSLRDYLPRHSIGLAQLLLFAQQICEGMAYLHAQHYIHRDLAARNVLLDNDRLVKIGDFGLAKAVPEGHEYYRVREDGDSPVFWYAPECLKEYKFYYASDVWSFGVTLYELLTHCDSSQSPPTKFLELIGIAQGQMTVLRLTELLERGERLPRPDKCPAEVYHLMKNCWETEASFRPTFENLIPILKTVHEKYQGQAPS
# In short: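 Compounds were tested in duplicate as 11-point 1:3 or 1:4 DMSO dilutions (≤0.25% DMSO final) in 20 μL reactions at 25 °C for 90 min, with Tyk2 pre-incubated 30 min with 2 mM ATP. Reactions were quenched with TFA plus internal standard peptide, and phosphorylated product was quantified by RapidFire C4 SPE–ESI MS.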
# JAK2-JH1JH2 = JAK2-JH1JH2 (Homo sapiens (Human), UniProt O60674); assay: Enzymatic inhibition assay (RapidFire HTMS), JAK2; conditions: 30 μM ATP, 40 μM substrate
# Chain of JAK2-JH1JH2 (O60674 532-1132): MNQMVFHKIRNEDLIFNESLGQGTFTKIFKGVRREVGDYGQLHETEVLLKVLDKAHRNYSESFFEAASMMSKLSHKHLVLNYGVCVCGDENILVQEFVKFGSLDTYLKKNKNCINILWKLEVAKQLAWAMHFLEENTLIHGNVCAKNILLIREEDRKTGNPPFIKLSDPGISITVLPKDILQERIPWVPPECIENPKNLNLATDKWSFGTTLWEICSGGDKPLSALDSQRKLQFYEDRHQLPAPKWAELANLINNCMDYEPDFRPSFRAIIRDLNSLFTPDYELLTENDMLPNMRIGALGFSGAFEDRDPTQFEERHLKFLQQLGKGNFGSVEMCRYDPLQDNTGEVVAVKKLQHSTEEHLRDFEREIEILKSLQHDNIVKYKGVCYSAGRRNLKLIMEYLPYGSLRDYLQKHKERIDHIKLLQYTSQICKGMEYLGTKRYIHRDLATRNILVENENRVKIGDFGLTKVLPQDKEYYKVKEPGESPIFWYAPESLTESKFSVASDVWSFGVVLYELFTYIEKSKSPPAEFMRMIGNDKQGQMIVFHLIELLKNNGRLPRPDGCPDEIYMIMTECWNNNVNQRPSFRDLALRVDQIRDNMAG
# In short: (§1)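 Quenched with 0.5% TFA plus internal-standard peptide; phosphorylated product quantified by RapidFire C4 SPE–ESI-MS, 11-point 1:3 or 1:4 dilutions in duplicate.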
# JAK1-JH1JH2 = JAK1-JH1JH2 (Homo sapiens (Human), UniProt P23458); assay: Enzymatic inhibition assay (RapidFire HTMS), JAK1; conditions: 12.5 μM ATP, 200 μM substrate; read-out: JAK1-JH2JH1 IC50
# Chain of JAK1-JH1JH2 (P23458 574-1154): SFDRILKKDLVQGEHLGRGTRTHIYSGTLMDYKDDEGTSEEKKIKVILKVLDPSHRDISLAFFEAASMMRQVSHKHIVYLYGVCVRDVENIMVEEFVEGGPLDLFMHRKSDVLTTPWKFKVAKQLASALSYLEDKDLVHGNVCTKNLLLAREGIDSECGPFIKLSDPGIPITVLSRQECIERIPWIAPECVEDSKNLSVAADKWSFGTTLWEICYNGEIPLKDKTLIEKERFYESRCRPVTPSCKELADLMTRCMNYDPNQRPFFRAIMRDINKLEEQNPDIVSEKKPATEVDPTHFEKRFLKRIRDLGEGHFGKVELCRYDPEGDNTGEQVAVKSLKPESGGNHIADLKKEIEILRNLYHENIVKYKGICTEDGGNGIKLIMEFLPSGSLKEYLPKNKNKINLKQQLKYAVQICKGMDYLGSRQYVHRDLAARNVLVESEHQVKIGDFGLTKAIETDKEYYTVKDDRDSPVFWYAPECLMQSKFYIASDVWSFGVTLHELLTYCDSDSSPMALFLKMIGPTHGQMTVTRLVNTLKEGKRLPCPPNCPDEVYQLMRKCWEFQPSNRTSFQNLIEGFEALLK
# In short: as §1
# Chain of JAK3-JH1JH2 (P52333 512-1124): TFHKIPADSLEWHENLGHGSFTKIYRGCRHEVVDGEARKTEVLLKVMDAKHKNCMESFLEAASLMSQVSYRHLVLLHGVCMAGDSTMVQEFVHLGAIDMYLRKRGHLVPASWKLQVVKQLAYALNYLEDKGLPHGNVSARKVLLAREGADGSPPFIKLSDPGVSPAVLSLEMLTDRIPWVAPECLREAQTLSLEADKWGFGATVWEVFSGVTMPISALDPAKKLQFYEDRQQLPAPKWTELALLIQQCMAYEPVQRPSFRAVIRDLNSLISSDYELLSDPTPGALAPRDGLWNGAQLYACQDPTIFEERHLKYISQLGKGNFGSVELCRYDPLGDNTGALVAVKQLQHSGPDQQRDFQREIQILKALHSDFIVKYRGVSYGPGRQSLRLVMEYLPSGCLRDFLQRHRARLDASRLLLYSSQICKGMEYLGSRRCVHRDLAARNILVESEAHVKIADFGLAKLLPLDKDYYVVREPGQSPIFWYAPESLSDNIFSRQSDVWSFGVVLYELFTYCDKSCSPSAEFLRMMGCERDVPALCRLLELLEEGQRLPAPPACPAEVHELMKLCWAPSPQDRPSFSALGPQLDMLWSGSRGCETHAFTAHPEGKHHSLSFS
IC50 (JAK3-JH1JH2) [nM],IC50 (Tyk2-JH1JH2) [nM],IC50 (JAK2-JH1JH2) [nM],IC50 (JAK1-JH1JH2) [nM],SMILES
180,60,24.6,1.3,"CC(C)(O)Cn1cc(-c2nc3cnc4[nH]ccc4c3n2[C@H]2CC[C@H](CC#N)CC2)cn1 [Ex. 187, 2-((1r,4r)-4-(2-(1-(2-Hydroxy-2-methylpropyl)-1H-pyrazol-4-yl)imidazo[4,5-d]pyrrolo[2,3-b]pyridin-1(6H)-yl)cyclohexyl)acetonitrile]"
13.1,122,36.7,3.2,"CC(C)(O)CNC(=O)Cc1nc2cnc3[nH]cc(Cl)c3c2n1[C@H]1CC[C@H](CC#N)CC1 [Ex. 188, 2-(8-chloro-1-((1r,4r)-4-(cyanomethyl)cyclohexyl)-1,6-dihydroimidazo[4,5-d]pyrrolo[2,3-b]pyridin-2-yl)-N-(2-hydroxy-2-methylpropyl)acetamide]"
16.6,182,42.3,3.4,"CC(C)(O)CNC(=O)Cc1nc2cnc3[nH]cc(Br)c3c2n1[C@H]1CC[C@H](CC#N)CC1 [Ex. 189, 2-(8-bromo-1-((1r,4r)-4-(cyanomethyl)cyclohexyl)-1,6-dihydroimidazo[4,5-d]pyrrolo[2,3-b]pyridin-2-yl)-N-(2-hydroxy-2-methylpropyl)acetamide]"
102,458,150,12.4,"Cc1c[nH]c2ncc3nc(CC(=O)NCC(C)(C)O)n([C@H]4CC[C@H](CC#N)CC4)c3c12 [Ex. 190, 2-(1-((1r,4r)-4-(cyanomethyl)cyclohexyl)-8-methyl-1,6-dihydroimidazo[4,5-d]pyrrolo[2,3-b]pyridin-2-yl)-N-(2-hydroxy-2-methylpropyl)acetamide]"
1340,20.6,57.3,1.3,"Cc1cc2c(ncc3nc(CC(=O)NCC(C)(C)O)n([C@H]4CC[C@H](CC#N)CC4)c32)[nH]1 [Ex. 191, 2-(1-((1r,4r)-4-(Cyanomethyl)cyclohexyl)-7-methyl-1,6-dihydroimidazo[4,5-d]pyrrolo[2,3-b]pyridin-2-yl)-N-(2-hydroxy-2-methylpropyl)acetamide]"
1120,25.8,69,1,"COCCOCCOCCOCCc1nc2cnc3[nH]ccc3c2n1[C@H]1CC[C@H](CC#N)CC1 [Ex. 192, 2-((1r,4r)-4-(2-(2,5,8,11-Tetraoxatridecan-13-yl)imidazo[4,5-d]pyrrolo[2,3-b]pyridin-1(6H)-yl)cyclohexyl)acetonitrile]"
69.5,5.3,10.1,0.2,"N#CC[C@H]1CC[C@H](n2c(CC(=O)NCCOCCOCCN)nc3cnc4[nH]ccc4c32)CC1 [Ex. 193, N-(2-(2-(2-Aminoethoxy)ethoxy)ethyl)-2-(1-((1r,4r)-4-(cyanomethyl)cyclohexyl)-1,6-dihydroimidazo[4,5-d]pyrrolo[2,3-b]pyridin-2-yl)acetamide]"
1460,72.5,133,9.4,"COCCOCCOCc1nc2cnc3[nH]ccc3c2n1[C@H]1CC[C@H](CC#N)CC1 [Ex. 194, 2-((1r,4r)-4-(2-((2-(2-methoxyethoxy)ethoxy)methyl)imidazo[4,5-d]pyrrolo[2,3-b]pyridin-1(6H)-yl)cyclohexyl)acetonitrile]"
294,11,33.7,3.3,"N#CC[C@H]1CC[C@H](n2c(CC(=O)N3CCC[C@H]3CO)nc3cnc4[nH]ccc4c32)CC1 [Ex. 195, 2-((1S,4r)-4-(2-(2-((S)-2-(hydroxymethyl)pyrrolidin-1-yl)-2-oxoethyl)imidazo[4,5-d]pyrrolo[2,3-b]pyridin-1(6H)-yl)cyclohexyl)acetonitrile]"
660,41.8,41.4,3.4,"N#CC[C@H]1CC[C@H](n2c(COC(=O)NC34CC5CC(CC(C5)C3)C4)nc3cnc4[nH]ccc4c32)CC1 [Ex. 196, (1-((1r,4r)-4-(Cyanomethyl)cyclohexyl)-1,6-dihydroimidazo[4,5-d]pyrrolo[2,3-b]pyridin-2-yl)methyl (3S,5S,7S)-adamantan-1-ylcarbamate]"
132,6.2,15.5,< 4,"COC1CCN(C(=O)Cc2nc3cnc4[nH]ccc4c3n2[C@H]2CC[C@H](CC#N)CC2)CC1 [Ex. 197, 2-((1r,4r)-4-(2-(2-(4-Methoxypiperidin-1-yl)-2-oxoethyl)imidazo[4,5-d]pyrrolo[2,3-b]pyridin-1(6H)-yl)cyclohexyl)acetonitrile]"
24.4,1.2,2.1,< 4,"CNC(=O)Cc1nc2cnc3[nH]ccc3c2n1[C@H]1CC[C@H](CC#N)CC1 [Ex. 198, 2-(1-((1r,4r)-4-(Cyanomethyl)cyclohexyl)-1,6-dihydroimidazo[4,5-d]pyrrolo[2,3-b]pyridin-2-yl)-N-methylacetamide]"

# The remaining lines, values behind:
SMILES,IC50 (JAK3-JH1JH2) [nM],IC50 (Tyk2-JH1JH2) [nM],IC50 (JAK2-JH1JH2) [nM],IC50 (JAK1-JH1JH2) [nM]
"N#CC[C@H]1CC[C@H](n2c(C(=O)NC3CC3)nc3cnc4[nH]ccc4c32)CC1 [Ex. 175, 1-((1r,4r)-4-(Cyanomethyl)cyclohexyl)-N-cyclopropyl-1,6-dihydroimidazo[4,5-d]pyrrolo[2,3-b]pyridine-2-carboxamide]",839,49.5,27.8,2.5
"COC1CCN(C(=O)c2nc3cnc4[nH]ccc4c3n2[C@H]2CC[C@H](CC#N)CC2)CC1 [Ex. 176, 2-((1r,4r)-4-(2-(4-Methoxypiperidine-1-carbonyl)imidazo[4,5-d]pyrrolo[2,3-b]pyridin-1(6H)-yl)cyclohexyl)acetonitrile]",3250,127,157,2.6
"N#CC[C@H]1CC[C@H](n2c(C(=O)N3CCC(C#N)CC3)nc3cnc4[nH]ccc4c32)CC1 [Ex. 177, 1-(1-((1r,4r)-4-(Cyanomethyl)cyclohexyl)-1,6-dihydroimidazo[4,5-d]pyrrolo[2,3-b]pyridine-2-carbonyl)piperidine-4-carbonitrile]",2370,102,161,2.7
"N#CC[C@H]1CC[C@H](n2c(C(=O)NC3CCOCC3)nc3cnc4[nH]ccc4c32)CC1 [Ex. 178, 1-((1r,4r)-4-(Cyanomethyl)cyclohexyl)-N-(tetrahydro-2H-pyran-4-yl)-1,6-dihydroimidazo[4,5-d]pyrrolo[2,3-b]pyridine-2-carboxamide]",1310,42.2,60,3.1
"COCC(C)NC(=O)c1nc2cnc3[nH]ccc3c2n1[C@H]1CC[C@H](CC#N)CC1 (stereo partly drawn) [Ex. 179, 1-((1r,4r)-4-(Cyanomethyl)cyclohexyl)-N-(1-methoxypropan-2-yl)-1,6-dihydroimidazo[4,5-d]pyrrolo[2,3-b]pyridine-2-carboxamide]",641,30,20.9,1.4
"N#CC[C@H]1CC[C@H](n2c(C(=O)N3CCOCC3)nc3cnc4[nH]ccc4c32)CC1 [Ex. 180, 2-((1r,4r)-4-(2-(Morpholine-4-carbonyl)imidazo[4,5-d]pyrrolo[2,3-b]pyridin-1(6H)-yl)cyclohexyl)acetonitrile]",2290,129,149,3.4
"N#CC[C@H]1CC[C@H](n2c(C(=O)N3CCC(O)CC3)nc3cnc4[nH]ccc4c32)CC1 [Ex. 181, 2-((1r,4r)-4-(2-(4-Hydroxypiperidine-1-carbonyl)imidazo[4,5-d]pyrrolo[2,3-b]pyridin-1(6H)-yl)cyclohexyl)acetonitrile]",6300,159,331,5.4
"CCOC(=O)Cn1cc(-c2nc3cnc4[nH]ccc4c3n2[C@H]2CC[C@H](CC#N)CC2)cn1 [Ex. 182, Ethyl 2-(4-(1-((1r,4r)-4-(cyanomethyl)cyclohexyl)-1,6-dihydroimidazo[4,5-d]pyrrolo[2,3-b]pyridin-2-yl)-1H-pyrazol-1-yl)acetate]",276,52.5,24.3,2.8
"Cc1nc(C)c(-c2nc3cnc4[nH]ccc4c3n2[C@H]2CC[C@H](CC#N)CC2)o1 [Ex. 183, 2-((1r,4r)-4-(2-(2,4-dimethyloxazol-5-yl)imidazo[4,5-d]pyrrolo[2,3-b]pyridin-1(6H)-yl)cyclohexyl)acetonitrile]",645,118,52.9,4.3
"Cc1nc(C)c(-c2nc3cnc4[nH]ccc4c3n2[C@H]2CC[C@H](CC#N)CC2)s1 [Ex. 184, 2-((1r,4r)-4-(2-(2,4-dimethylthiazol-5-yl)imidazo[4,5-d]pyrrolo[2,3-b]pyridin-1(6H)-yl)cyclohexyl)acetonitrile]",1230,319,230,25.5
"N#CC[C@H]1CC[C@H](n2c(-c3cnn(CC(=O)NC4CC4)c3)nc3cnc4[nH]ccc4c32)CC1 [Ex. 185, 2-(4-(1-((1r,4r)-4-(Cyanomethyl)cyclohexyl)-1,6-dihydroimidazo[4,5-d]pyrrolo[2,3-b]pyridin-2-yl)-1H-pyrazol-1-yl)-N-cyclopropylacetamide]",150,36.4,19.8,2.1
"N#CC[C@H]1CC[C@H](n2c(-c3cccnc3N)nc3cnc4[nH]ccc4c32)CC1 [Ex. 186, 2-((1r,4r)-4-(2-(2-aminopyridin-3-yl)imidazo[4,5-d]pyrrolo[2,3-b]pyridin-1(6H)-yl)cyclohexyl)acetonitrile]",4650,254,82.2,3.7
